# In ChEMBL document CHEMBL1139984, “Potent and selective biphenyl azole inhibitors of adipocyte fatty acid binding protein (aFABP)” (Bioorg Med Chem Lett, 2007):
# Columns and labels:
# [1] = target: T1, Fatty acid-binding protein, adipocyte (Homo sapiens, UniProt P15090); assay: Displacement of 1,8-ANS from aFABP by fluorescence based-assay
# [2] = target: Fatty acid-binding protein, heart (Homo sapiens, UniProt P05413); assay: Displacement of 1,8-ANS from mFABP by fluorescence based-assay
# [3] = target: Fatty acid-binding protein 5 (Homo sapiens, UniProt Q01469); assay: Displacement of 1,8-ANS from eFABP by fluorescence based-assay
# Chain of Fatty acid-binding protein 5 (Q01469 whole entry): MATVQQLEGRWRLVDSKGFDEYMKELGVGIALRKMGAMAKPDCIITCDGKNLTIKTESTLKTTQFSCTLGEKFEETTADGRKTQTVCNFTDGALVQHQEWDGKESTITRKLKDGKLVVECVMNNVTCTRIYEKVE
# [4] = target: T1, Fatty acid-binding protein, adipocyte; assay: Displacement of [3H]2,3-bis[(2,4-dichlorobenzyl)oxy]benzoic acid from aFABP
# [5] = target: T1, Fatty acid-binding protein, adipocyte; assay: Binding affinity to aFABP
# Homo sapiens = species on record: Homo sapiens; assay: Selectivity for aFABP over mFABP by 1,8-ANS fluorescence based-assay
# Chain of Fatty acid-binding protein, heart (P05413 whole entry): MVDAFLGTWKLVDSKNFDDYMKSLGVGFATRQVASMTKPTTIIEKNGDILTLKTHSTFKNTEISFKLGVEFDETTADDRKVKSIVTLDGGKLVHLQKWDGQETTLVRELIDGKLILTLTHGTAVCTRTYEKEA
# T1 sequence (P15090 whole entry): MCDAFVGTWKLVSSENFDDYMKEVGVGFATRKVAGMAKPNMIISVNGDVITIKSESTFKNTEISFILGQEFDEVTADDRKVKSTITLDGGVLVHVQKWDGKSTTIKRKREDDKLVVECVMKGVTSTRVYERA
Compound,Ki [1] [nM],Ki [2] [nM],Ki [3] [nM],Ki [4] [nM],Kd [5] [nM],Ratio Ki (Homo sapiens)
O=C(O)COc1cccc(-c2ccccc2-c2nc(-c3ccccc3)c(-c3ccccc3)[nH]2)c1,9.3,> 1000,> 2000,,,
O=C(O)CNc1cccc(-c2ccccc2-c2nc(-c3ccccc3)c(-c3ccccc3)[nH]2)c1,18,> 1000,> 2000,300,,
O=C(O)CCCCOc1ccccc1-c1nc(-c2ccccc2)c(-c2ccccc2)o1,58,32,> 2000,,,
CC(C)Cn1c(-c2ccccc2-c2cccc(NCC(=O)O)c2)nc(-c2ccccc2)c1-c1ccccc1,130,> 1000,> 2000,,,
CCCCCCCC/C=C\CCCCCCCC(=O)O [OLEIC ACID],,,248,,,
O=C(O)COc1cccc(-c2ccccc2-c2nc(-c3ccccc3)c(-c3ccccc3)o2)c1,6,> 1000,> 2000,95,,170
O=C(O)COc1cccc(-c2ccccc2-c2cc(-c3ccccc3)c(-c3ccccc3)[nH]2)c1,12,> 1000,> 2000,,,
O=C(O)CNc1cccc(-c2ccccc2-c2nc(-c3ccccc3)c(-c3ccccc3)n2CC(=O)O)c1,> 2000,> 1000,> 2000,,,
CCc1c(-c2ccccc2)c(-c2ccccc2)nn1-c1ccccc1-c1cccc(C(O)C(=O)O)c1 (stereo not given),28,360,550,,,
CCc1c(-c2ccccc2)c(-c2ccccc2)nn1-c1ccccc1-c1cccc(C(=O)O)c1,650,110,,,,
O=S(=O)(O)c1cccc2cccc(Nc3ccccc3)c12,,,,1000,150,
O=C(O)COc1cccc(-c2ccccc2-c2cc(-c3ccccc3)c(-c3ccccc3)o2)c1,36,> 1000,> 2000,,,

# Next, values leading:
Ki [1] [nM],Ki [2] [nM],Ki [3] [nM],Ki [4] [nM],Kd [5] [nM],Ratio Ki (Homo sapiens),Compound
< 2,> 1000,,13,,,Cn1c(-c2ccccc2-c2cccc(OCC(=O)O)c2)nc(-c2ccccc2)c1-c1ccccc1
3.5,220,,32,,,CCc1c(-c2ccccc2-c2cccc(OCC(=O)O)c2)oc(-c2ccccc2)c1-c1ccccc1
2,4,2,,21,,[3H]c1c(Cl)ccc(COc2cccc(C(=O)O)c2OCc2ccc(Cl)c([3H])c2Cl)c1Cl
3.4,> 1000,> 2000,13,,,CCn1c(-c2ccccc2-c2cccc(NCC(=O)O)c2)nc(-c2ccccc2)c1-c1ccccc1
< 2,> 1000,,3.3,,,CCn1c(-c2ccccc2-c2cccc(OCC(=O)O)c2)nc(-c2ccccc2)c1-c1ccccc1
< 2,> 1000,> 2000,8.7,,,O=C(O)COc1cccc(-c2ccccc2-c2nc(-c3ccccc3)c(-c3ccccc3)n2CCF)c1
2.7,> 1000,> 2000,48,,,Cn1c(-c2ccccc2-c2cccc(NCC(=O)O)c2)nc(-c2ccccc2)c1-c1ccccc1
